Source: patent publication US20240199649A1 (Biosplice Therapeutics, Inc., priority 2022, published 2024)

Target: recombinant DYRK1A kinase (Homo sapiens (Human), UniProt Q13627)
Assay: DYRK1A kinase assay (Ser/Thr 18 peptide Z-lyte FRET assay)
Type: biochemical
Details: DYRK1A 0.25 μg/mL, ATP 15 μM, Ser/Thr peptide 18 4 μM; one hour at room temperature; 11-point dose-response, duplicate
Description: Representative compounds were screened using the assay procedure for DYRK1A kinase activity as described below.
Each compound was dissolved in DMSO as a 10 mM stock and used to prepare compound source plates.
This is a non-radioactive assay using fluorescence resonance energy transfer (FRET) between coumarin and fluorescein to detect kinase activity which is represented as a ratio of coumarin emission/fluorescein emission.
The mixture was allowed to incubate with the representative compounds for one hour at room temperature. All reactions were performed in duplicate. Unphosphorylated (“0% Control”) and phosphorylated (“100% control”) forms of Ser/Thr 18 served as control reactions. Additionally, an 11-point dose-response curve of Staurosporine (1 uM top) was run to serve as a positive compound control.
After incubation, Development Reagent A was diluted in Development Buffer then added to the reaction and allowed to further incubate for one hour at room temperature.
Dose-response curves were generated, and inhibitory concentration (IC50) values were calculated using non-linear regression curve fit in the Dotmatics' Studies Software (Bishops Stortford, UK).

| SMILES | IC50 [nM] |
| --- | --- |
| C[C@]1(O)CC[C@H](Nc2nc(N)c3c(-c4ccn5nccc5c4)ccn3n2)CC1 [Compound 1, trans-4-((4-Amino-5-(pyrazolo[1,5-a]pyridin-5-yl)pyrrolo[2,1-f][1,2,4]triazin-2-yl)amino)-1-methylcyclohexan-1-ol] | 172 |
| CNc1nc(N[C@H]2CC[C@](C)(O)CC2)nn2ccc(-c3ccn4nccc4n3)c12 [Compound 20, trans-1-Methyl-4-((4-(methylamino)-5-(pyrazolo[1,5-a]pyrimidin-5-yl)pyrrolo[2,1-f][1,2,4]triazin-2-yl)amino)cyclohexan-1-ol] | 2.5 |
| CNc1nc(N[C@@H]2CCN(C)CC2(F)F)nn2ccc(-c3ccn4nccc4n3)c12 [Compound 44, (R)—N^2-(3,3-Difluoro-1-methylpiperidin-4-yl)-N^4-methyl-5-(pyrazolo[1,5-a]pyrimidin-5-yl)pyrrolo[2,1-f][1,2,4]triazine-2,4-diamine] | 5.8 |
| CNc1nc(N[C@H]2CC[C@](C)(O)CC2)nn2ccc(-c3ccc4nccn4c3)c12 [Compound 58, trans-4-((5-(Imidazo[1,2-a]pyridin-6-yl)-4-(methylamino)pyrrolo[2,1-f][1,2,4]triazin-2-yl)amino)-1-methylcyclohexan-1-ol] | 170 |
| CNc1nc(NC2CCN(C3COC3)CC2)nn2ccc(-c3cnc4nc(C)n(C(C)C)c4c3)c12 [Compound 114] | 744 |
| CNc1nc(N[C@H]2CC[C@](C)(O)CC2)nn2ccc(-c3ccc4nc(C)n(C(C)C)c4n3)c12 [Compound 132, trans-4-((5-(3-Isopropyl-2-methyl-3H-imidazo[4,5-b]pyridin-5-yl)-4-(methylamino)pyrrolo[2,1-f][1,2,4]triazin-2-yl)amino)-1-methylcyclohexan-1-ol] | 1.7 |
| CNc1nc(N[C@H]2C[C@](C)(O)C2)nn2ccc(-c3cnc4nc(C)n(CC(F)F)c4c3)c12 [Compound 170, trans-3-((5-(1-(2,2-Difluoroethyl)-2-methyl-1H-imidazo[4,5-b]pyridin-6-yl)-4-(methylamino)pyrrolo[2,1-f][1,2,4]triazin-2-yl)amino)-1-methylcyclobutan-1-ol] | 4.8 |
| CNc1nc(N[C@H]2CC[C@](C)(O)CC2)nn2ccc(-c3cnc4nc(C)n(CC(F)F)c4c3)c12 [Compound 171, trans-4-((5-(1-(2,2-Difluoroethyl)-2-methyl-1H-imidazo[4,5-b]pyridin-6-yl)-4-(methylamino)pyrrolo[2,1-f][1,2,4]triazin-2-yl)amino)-1-methylcyclohexan-1-ol] | 8 |
| CNc1nc(N[C@H]2C[C@@H](OCCO)C2)nn2ccc(-c3ccc4nc(C)n(CC(F)F)c4n3)c12 [Compound 172, 2-(cis-3-((5-(3-(2,2-Difluoroethyl)-2-methyl-3H-imidazo[4,5-b]pyridin-5-yl)-4-(methylamino)pyrrolo[2,1-f][1,2,4]triazin-2-yl)amino)cyclobutoxy)ethan-1-ol] | 0.9 |
| CNc1nc(N[C@H]2C[C@@](C)(O)C2)nn2ccc(-c3ccc4nc(C)n(CC(F)F)c4n3)c12 [Compound 174, Cis-3-((5-(3-(2,2-Difluoroethyl)-2-methyl-3H-imidazo[4,5-b]pyridin-5-yl)-4-(methylamino)pyrrolo[2,1-f][1,2,4]triazin-2-yl)amino)-1-methylcyclobutan-1-ol] | 1.7 |
| CNc1nc(NC2CCC(F)(F)CC2)nn2ccc(-c3ccc4nc(C)n(CC(F)F)c4n3)c12 [Compound 182, N^2-(4,4-Difluorocyclohexyl)-5-(3-(2,2-difluoroethyl)-2-methyl-3H-imidazo[4,5-b]pyridin-5-yl)-N^4-methylpyrrolo[2,1-f][1,2,4]triazine-2,4-diamine] | 12 |
| CNc1nc(N[C@H]2CC[C@@H](OC)CC2)nn2ccc(-c3ccc4nc(C)n(CC(F)F)c4n3)c12 [Compound 183, 5-(3-(2,2-Difluoroethyl)-2-methyl-3H-imidazo[4,5-b]pyridin-5-yl)-N^2-(cis-4-methoxycyclohexyl)-N^4-methylpyrrolo[2,1-f][1,2,4]triazine-2,4-diamine] | 4.1 |
| CNc1nc(N[C@H]2CC[C@@H](OCCO)CC2)nn2ccc(-c3ccc4nc(C)n(CC(F)F)c4n3)c12 [Compound 184, 2-((cis-4-((5-(3-(2,2-Difluoroethyl)-2-methyl-3H-imidazo[4,5-b]pyridin-5-yl)-4-(methylamino)pyrrolo[2,1-f][1,2,4]triazin-2-yl)amino)cyclohexyl)oxy)ethan-1-ol] | 0.5 |
| CNc1nc(N[C@H]2CC[C@@H](OCCOC)CC2)nn2ccc(-c3ccc4nc(C)n(CC(F)F)c4n3)c12 [Compound 185, 5-(3-(2,2-Difluoroethyl)-2-methyl-3H-imidazo[4,5-b]pyridin-5-yl)-N^2-(cis-4-(2-methoxyethoxy)cyclohexyl)-N^4-methylpyrrolo[2,1-f][1,2,4]triazine-2,4-diamine] | 2.4 |
| CNc1nc(N[C@H]2CC[C@@H](NC(C)=O)CC2)nn2ccc(-c3ccc4nc(C)n(CC(F)F)c4n3)c12 [Compound 186, N-(cis-4-((5-(3-(2,2-difluoroethyl)-2-methyl-3H-imidazo[4,5-b]pyridin-5-yl)-4-(methylamino)pyrrolo[2,1-f][1,2,4]triazin-2-yl)amino)cyclohexyl)acetamide] | 1.5 |
| CNc1nc(N[C@H]2CC[C@H](NC(C)=O)CC2)nn2ccc(-c3ccc4nc(C)n(CC(F)F)c4n3)c12 [Compound 187, N-(trans-4-((5-(3-(2,2-Difluoroethyl)-2-methyl-3H-imidazo[4,5-b]pyridin-5-yl)-4-(methylamino)pyrrolo[2,1-f][1,2,4]triazin-2-yl)amino)cyclohexyl)acetamide] | 1.1 |
| CNc1nc(N[C@H]2CC[C@@](C)(O)CC2)nn2ccc(-c3ccc4nc(C)n(CC(F)F)c4n3)c12 [Compound 188, Cis-4-((5-(3-(2,2-Difluoroethyl)-2-methyl-3H-imidazo[4,5-b]pyridin-5-yl)-4-(methylamino)pyrrolo[2,1-f][1,2,4]triazin-2-yl)amino)-1-methylcyclohexan-1-ol] | 2.2 |
| CNc1nc(N[C@H]2CC[C@](C)(O)CC2)nn2ccc(-c3ccc4nc(C)n(CC(F)F)c4n3)c12 [Compound 189, trans-4-((5-(3-(2,2-Difluoroethyl)-2-methyl-3H-imidazo[4,5-b]pyridin-5-yl)-4-(methylamino)pyrrolo[2,1-f][1,2,4]triazin-2-yl)amino)-1-methylcyclohexan-1-ol] | 1.3 |
| CNc1nc(NC23CC4CC(CC(C4)C2)C3)nn2ccc(-c3ccc4nc(C)n(CC(F)F)c4n3)c12 [Compound 196, N^2-(Adamantan-1-yl)-5-(3-(2,2-difluoroethyl)-2-methyl-3H-imidazo[4,5-b]pyridin-5-yl)-N^4-methylpyrrolo[2,1-f][1,2,4]triazine-2,4-diamine] | 595 |
| CNc1nc(N[C@H]2CN(C)C[C@H]2F)nn2ccc(-c3ccc4nc(C)n(CC(F)F)c4n3)c12 [Compound 197, 5-(3-(2,2-Difluoroethyl)-2-methyl-3H-imidazo[4,5-b]pyridin-5-yl)-N^2-((3S,4R)-4-fluoro-1-methylpyrrolidin-3-yl)-N^4-methylpyrrolo[2,1-f][1,2,4]triazine-2,4-diamine] | 2 |
| CNc1nc(N[C@@H]2CN(C)C[C@@H]2F)nn2ccc(-c3ccc4nc(C)n(CC(F)F)c4n3)c12 [Compound 198, 5-(3-(2,2-Difluoroethyl)-2-methyl-3H-imidazo[4,5-b]pyridin-5-yl)-N^2-((3R,4S)-4-fluoro-1-methylpyrrolidin-3-yl)-N^4-methylpyrrolo[2,1-f][1,2,4]triazine-2,4-diamine] | 0.6 |
| CNc1nc(N[C@H]2CN(C3COC3)C[C@H]2F)nn2ccc(-c3ccc4nc(C)n(CC(F)F)c4n3)c12 [Compound 199, 5-(3-(2,2-Difluoroethyl)-2-methyl-3H-imidazo[4,5-b]pyridin-5-yl)-N^2-((3S,4R)-4-fluoro-1-(oxetan-3-yl)pyrrolidin-3-yl)-N^4-methylpyrrolo[2,1-f][1,2,4]triazine-2,4-diamine] | 2.4 |
| CNc1nc(N[C@@H]2CN(C3COC3)C[C@@H]2F)nn2ccc(-c3ccc4nc(C)n(CC(F)F)c4n3)c12 [Compound 200, 5-(3-(2,2-Difluoroethyl)-2-methyl-3H-imidazo[4,5-b]pyridin-5-yl)-N^2-((3R,4S)-4-fluoro-1-(oxetan-3-yl)pyrrolidin-3-yl)-N^4-methylpyrrolo[2,1-f][1,2,4]triazine-2,4-diamine] | 1.3 |
| CNc1nc(NC2CCN(CC(F)F)CC2)nn2ccc(-c3ccc4nc(C)n(CC(F)F)c4n3)c12 [Compound 201, 5-(3-(2,2-Difluoroethyl)-2-methyl-3H-imidazo[4,5-b]pyridin-5-yl)-N^2-(1-(2,2-difluoroethyl)piperidin-4-yl)-N^4-methylpyrrolo[2,1-f][1,2,4]triazine-2,4-diamine] | 0.7 |
| CNc1nc(NC2CCN(C(C)=O)CC2)nn2ccc(-c3ccc4nc(C)n(CC(F)F)c4n3)c12 [Compound 202, 1-(4-((5-(3-(2,2-Difluoroethyl)-2-methyl-3H-imidazo[4,5-b]pyridin-5-yl)-4-(methylamino)pyrrolo[2,1-f][1,2,4]triazin-2-yl)amino)piperidin-1-yl)ethan-1-one] | 1.8 |
| CNc1nc(NC2CCN(C3COC3)CC2)nn2ccc(-c3ccc4nc(C)n(CC(F)F)c4n3)c12 [Compound 203, 5-(3-(2,2-Difluoroethyl)-2-methyl-3H-imidazo[4,5-b]pyridin-5-yl)-N^4-methyl-N^2-(1-(oxetan-3-yl)piperidin-4-yl)pyrrolo[2,1-f][1,2,4]triazine-2,4-diamine] | 2 |
